Values of other authors, collected in patent publication US12662501B2, “Transcriptome In Vivo Analysis (TIVA) and Transcriptome In Situ Analysis (TISA)” (The Trustees of the University of Pennsylvania, priority 2014, dated 2026).

Columns and labels:
[1] = for Eop: 1MLCT Ru→bpy(π1*) transition; for λmax: 1MLCT band

Row | Structure (SMILES) | Eop [1] [cm⁻¹] | λmax [1] [nm] | ε (1P, 424 nm) [M⁻¹ cm⁻¹] | Φ (RuBi-caged GABA) | εΦ (RuBi-caged GABA, 1P, 424 nm)
1 | C=CCn1cnnc1 [4-ally1-1,2,4-triazole] | 21190 | 472 | – | – | –
2 | CC(=O)c1ccncc1.CC(=O)c1ccncc1.[Ru+2].c1ccc(-c2ccccn2)nc1.c1ccc(-c2ccccn2)nc1 [(4-AcPyr)2] | 22620 | 442 | – | – | –
3 | CCSC.CCSC.[Ru+2].c1ccc(-c2ccccn2)nc1.c1ccc(-c2ccccn2)nc1 [(MeSEt)2] | 23697 | 422 | – | – | –
4 | CSc1ccccc1.CSc1ccccc1.[Ru+2].c1ccc(-c2ccccn2)nc1.c1ccc(-c2ccccn2)nc1 [(MeSPh)2] | 24752 | 404 | – | – | –
5 | Cn1ccnc1.Cn1ccnc1.[Ru+2].c1ccc(-c2ccccn2)nc1.c1ccc(-c2ccccn2)nc1 [(N-MeIm)2] | 20700 | 483 | – | – | –
6 | N.N.[Ru+2].c1ccc(-c2ccccn2)nc1.c1ccc(-c2ccccn2)nc1 [(NH3)2] | 20410 | 490 | – | – | –
7 | [Ru+2].c1ccc(-c2ccccn2)nc1.c1ccc(-c2ccccn2)nc1.c1ccc(P(c2ccccc2)c2ccccc2)cc1.c1ccc(P(c2ccccc2)c2ccccc2)cc1 [(PPh3)2] | 23870 | 419 | – | – | –
8 | [Ru+2].c1ccc(-c2ccccn2)nc1.c1ccc(-c2ccccn2)nc1.c1ccncc1.c1ccncc1 [(Pyr)2] | 21980 | 455 | – | – | –
9 | F[P-](F)(F)(F)(F)F.NCCCC(=O)[O-].[Ru+2].c1ccc(-c2ccccn2)nc1.c1ccc(-c2ccccn2)nc1.c1ccc(P(c2ccccc2)c2ccccc2)cc1 [RuBi-caged GABA] | – | – | 6400 | 0.2 | 1280
